Source: patent US20250250263A1, “INHIBITING HISTONE DEACETYLASE 6 (HDAC6)” (Eikonizo Therapeutics, Inc., priority 2022, published 2025)
pIC50: −log10 of the molar value.

What was measured:
[1] = target: Human HDAC6 (Homo sapiens (Human), UniProt Q9UBN7); experiment: In vitro HDAC6 enzymatic activity (Caliper endpoint assay or fluorogenic Nanosyn assay); format: biochemical; details: ratio of HDAC8 IC50/HDAC6 IC50
[2] = target: Human HDAC8 (Homo sapiens (Human), UniProt Q9BY41); experiment: In vitro HDAC8 enzymatic activity (Caliper endpoint assay); format: biochemical
Chain of Human HDAC8 (Q9BY41 whole entry): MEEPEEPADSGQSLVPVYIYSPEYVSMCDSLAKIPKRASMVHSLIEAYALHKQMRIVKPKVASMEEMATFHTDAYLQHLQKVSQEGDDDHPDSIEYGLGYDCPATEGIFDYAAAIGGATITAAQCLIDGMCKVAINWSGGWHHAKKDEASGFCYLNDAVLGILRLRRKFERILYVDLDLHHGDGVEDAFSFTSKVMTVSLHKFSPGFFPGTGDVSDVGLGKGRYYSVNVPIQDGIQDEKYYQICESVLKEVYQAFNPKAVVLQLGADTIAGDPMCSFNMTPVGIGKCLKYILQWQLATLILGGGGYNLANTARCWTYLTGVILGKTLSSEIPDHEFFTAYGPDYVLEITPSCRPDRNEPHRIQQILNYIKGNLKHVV

Chain of Human HDAC6 (Q9UBN7 whole entry): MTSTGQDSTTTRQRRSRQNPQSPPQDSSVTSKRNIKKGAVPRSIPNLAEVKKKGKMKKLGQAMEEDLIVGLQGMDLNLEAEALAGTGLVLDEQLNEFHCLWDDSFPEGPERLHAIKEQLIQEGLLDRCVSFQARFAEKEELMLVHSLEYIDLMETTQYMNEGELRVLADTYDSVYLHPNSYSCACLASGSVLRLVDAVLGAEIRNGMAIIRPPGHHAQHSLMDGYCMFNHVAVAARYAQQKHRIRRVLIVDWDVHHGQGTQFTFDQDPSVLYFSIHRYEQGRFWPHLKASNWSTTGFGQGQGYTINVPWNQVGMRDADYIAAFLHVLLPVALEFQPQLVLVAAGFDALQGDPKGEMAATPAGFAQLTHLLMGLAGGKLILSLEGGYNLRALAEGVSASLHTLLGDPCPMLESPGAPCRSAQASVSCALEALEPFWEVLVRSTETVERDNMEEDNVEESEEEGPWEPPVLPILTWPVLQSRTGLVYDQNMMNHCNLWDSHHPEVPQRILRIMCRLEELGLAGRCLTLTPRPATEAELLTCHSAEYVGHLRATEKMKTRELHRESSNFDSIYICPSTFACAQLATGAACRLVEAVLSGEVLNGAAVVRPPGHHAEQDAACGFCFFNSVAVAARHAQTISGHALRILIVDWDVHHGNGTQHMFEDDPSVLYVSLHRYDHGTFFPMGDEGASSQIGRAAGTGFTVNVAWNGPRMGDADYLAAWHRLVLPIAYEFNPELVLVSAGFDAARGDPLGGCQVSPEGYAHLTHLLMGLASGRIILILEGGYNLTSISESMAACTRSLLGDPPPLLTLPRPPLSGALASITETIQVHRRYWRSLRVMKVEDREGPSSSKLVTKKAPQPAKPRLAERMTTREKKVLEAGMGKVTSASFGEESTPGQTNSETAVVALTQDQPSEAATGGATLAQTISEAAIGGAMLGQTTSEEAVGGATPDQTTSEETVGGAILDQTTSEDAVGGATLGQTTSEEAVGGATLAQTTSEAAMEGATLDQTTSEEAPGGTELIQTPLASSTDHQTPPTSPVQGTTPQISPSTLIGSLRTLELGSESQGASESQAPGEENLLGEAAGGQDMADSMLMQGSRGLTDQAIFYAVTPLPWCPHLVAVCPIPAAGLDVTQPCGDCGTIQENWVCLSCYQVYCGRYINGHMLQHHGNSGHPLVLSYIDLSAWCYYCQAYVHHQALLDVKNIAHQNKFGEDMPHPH

Selectivity (6 v 8) (fold) [1]	pIC50 [2]	SMILES
V (V: >1000)	< 4.00	FC(F)c1nnc(-c2ccc(COc3cccc4ncccc34)nc2)o1 [Compound 63]
IV (IV: >100-1000)	–	N#Cc1cc(OCc2ccc(-c3nnc(C(F)F)o3)cn2)ccc1F [Compound 30, 5-((5-(5-(difluoromethyl)-1,3,4-oxadiazol-2-yl)pyridin-2-yl)methoxy)-2-fluorobenzonitrile]
V (V: >1000)	< 4.00	FC(F)c1nnc(-c2ccc(COc3ccc4cccnc4c3)nc2)o1 [Compound 34]
